From patent US20090253709A1 (NATIONAL DEFENSE MEDICAL CENTER, priority 2008, published 2009) come the findings set out here.

The first test has as its system UO-31. The test can be described thus: In vitro cytotoxicity, Development Therapeutics Program. Format: cell-based. The following applies: UO-31, renal cancer; 1.0×10^−5 M. The text has this: (§1) From the in vitro experiments of the Development Therapeutics Program of the Cancer Research Institute, the United States, it was known that the synthetic heterocyclic anthraquinone derivatives of the present invention have different inhibition levels to the different cancer cell lines under the concentration of 1.0×10^−5 M. Please refer to Table 2, which is the result of in vitro cytotoxicity of 2,7-disubstituted anthraquinone derivatives of the present invention.
On to `O=C(CCN1CCCC1)Nc1ccc2c(c1)C(=O)c1cc(NC(=O)CCN3CCCC3)ccc1C2=O` [Compound 18, 2,7-Bis[3-(pyrrolidino)propionamido]anthraquinone], for which the “Cellular growth rate (%)” value turned out to be 5.27%.

In a further test the test system is SF-268. The description is as above. Format: cell-based. The following applies: SF-268, CNS cancer; 1.0×10^−5 M.
Excerpt: as §1
For `O=C(CCN1CCCC1)Nc1ccc2c(c1)C(=O)c1cc(NC(=O)CCN3CCCC3)ccc1C2=O` [Compound 18, 2,7-Bis[3-(pyrrolidino)propionamido]anthraquinone], the “Cellular growth rate (%)” value came out at 26.67%.

For another test, the system named is MCF7. Described as above. The test is classed as cell-based. The settings on record: MCF7, breast cancer; 1.0×10^−5 M.
Excerpt: as §1
`O=C(CCN1CCCC1)Nc1ccc2c(c1)C(=O)c1cc(NC(=O)CCN3CCCC3)ccc1C2=O` [Compound 18, 2,7-Bis[3-(pyrrolidino)propionamido]anthraquinone]: the “Cellular growth rate (%)” value is reported as 13.35%.

The subject of a further test is COLO 205. Described as above. Format: cell-based. The following applies: COLO 205, colon cancer; 1.0×10^−5 M.
Excerpt: as §1
For the compound `O=C(CCN1CCCC1)Nc1ccc2c(c1)C(=O)c1cc(NC(=O)CCN3CCCC3)ccc1C2=O` [Compound 18, 2,7-Bis[3-(pyrrolidino)propionamido]anthraquinone], the “Cellular growth rate (%)” value is −29.04%.

The subject of a further test is 786-0. The description is as above. The test is classed as cell-based. The following applies: 786-0, renal cancer; 1.0×10^−5 M.
Excerpt: as §1
With `O=C(CCN1CCCC1)Nc1ccc2c(c1)C(=O)c1cc(NC(=O)CCN3CCCC3)ccc1C2=O` [Compound 18, 2,7-Bis[3-(pyrrolidino)propionamido]anthraquinone], the “Cellular growth rate (%)” value is 40.51%.

In the next test the test system is SF-295. The test is described as above. The following applies: SF-295, CNS cancer; 1.0×10^−5 M. The test is classed as cell-based.
Excerpt: as §1
For `O=C(CCN1CCCC1)Nc1ccc2c(c1)C(=O)c1cc(NC(=O)CCN3CCCC3)ccc1C2=O` [Compound 18, 2,7-Bis[3-(pyrrolidino)propionamido]anthraquinone], the “Cellular growth rate (%)” value came to 48.62%.

The next test deals with NCl-H322M. The description is as above. The test is classed as cell-based. The following applies: non-small cell lung cancer, 1.0×10^−5 M.
Excerpt: as §1
Turning to `O=C(CCN1CCCC1)Nc1ccc2c(c1)C(=O)c1cc(NC(=O)CCN3CCCC3)ccc1C2=O` [Compound 18, 2,7-Bis[3-(pyrrolidino)propionamido]anthraquinone], the “Cellular growth rate (%)” value amounted to 45.79%.

A further test concerns EKVX. Described as above. Format: cell-based. The following applies: non-small cell lung cancer, 1.0×10^−5 M.
Excerpt: as §1
On to `O=C(CCN1CCCC1)Nc1ccc2c(c1)C(=O)c1cc(NC(=O)CCN3CCCC3)ccc1C2=O` [Compound 18, 2,7-Bis[3-(pyrrolidino)propionamido]anthraquinone], for which the “Cellular growth rate (%)” value is 58.72%.

The test system of the next test is TK-10. The test is described as above. Format: cell-based. The following applies: TK-10, renal cancer; 1.0×10^−5 M.
Excerpt: as §1
On to `O=C(CCN1CCCC1)Nc1ccc2c(c1)C(=O)c1cc(NC(=O)CCN3CCCC3)ccc1C2=O` [Compound 18, 2,7-Bis[3-(pyrrolidino)propionamido]anthraquinone], for which the “Cellular growth rate (%)” value is reported as 31.22%.

For a further test, the system named is PC-3. The description is as above. The test is classed as cell-based. The settings on record: PC-3, prostate cancer; 1.0×10^−5 M.
Excerpt: as §1
`O=C(CCN1CCCC1)Nc1ccc2c(c1)C(=O)c1cc(NC(=O)CCN3CCCC3)ccc1C2=O` [Compound 18, 2,7-Bis[3-(pyrrolidino)propionamido]anthraquinone]: the “Cellular growth rate (%)” value was 21.66%.

A further test concerns CCRF-CEM. The description is as above. Format: cell-based. The following applies: leukemia, 1.0×10^−5 M.
Excerpt: as §1
Regarding `O=C(CCN1CCCC1)Nc1ccc2c(c1)C(=O)c1cc(NC(=O)CCN3CCCC3)ccc1C2=O` [Compound 18, 2,7-Bis[3-(pyrrolidino)propionamido]anthraquinone], the “Cellular growth rate (%)” value was determined as 3.74%.

Another test relates to ACHN. Described as above. Format: cell-based. The following applies: renal cancer, 1.0×10^−5 M.
Excerpt: as §1
For the compound `O=C(CCN1CCCC1)Nc1ccc2c(c1)C(=O)c1cc(NC(=O)CCN3CCCC3)ccc1C2=O` [Compound 18, 2,7-Bis[3-(pyrrolidino)propionamido]anthraquinone], the “Cellular growth rate (%)” value is reported as 29.65%.

A further test deals with NCI/ADR-RES. The description is as above. The settings on record: breast cancer, 1.0×10^−5 M. Format: cell-based.
Excerpt: as §1
As for `O=C(CCN1CCCC1)Nc1ccc2c(c1)C(=O)c1cc(NC(=O)CCN3CCCC3)ccc1C2=O` [Compound 18, 2,7-Bis[3-(pyrrolidino)propionamido]anthraquinone], the “Cellular growth rate (%)” value came out at 80.59%.

The subject of another test is SR. Described as above. The test is classed as cell-based. The settings on record: leukemia, 1.0×10^−5 M.
Excerpt: as §1
Consider `O=C(CCN1CCCC1)Nc1ccc2c(c1)C(=O)c1cc(NC(=O)CCN3CCCC3)ccc1C2=O` [Compound 18, 2,7-Bis[3-(pyrrolidino)propionamido]anthraquinone], for which the “Cellular growth rate (%)” value is 19.75%.

The test system of the next test is OVCAR-4. The test is described as above. Format: cell-based. The settings on record: OVCAR-4, ovarian cancer; 1.0×10^−5 M.
Excerpt: as §1
For the compound `O=C(CCN1CCCC1)Nc1ccc2c(c1)C(=O)c1cc(NC(=O)CCN3CCCC3)ccc1C2=O` [Compound 18, 2,7-Bis[3-(pyrrolidino)propionamido]anthraquinone], the “Cellular growth rate (%)” value was 49.82%.

In another test the test system is LOX IMVI. The description is as above. The test is classed as cell-based. The settings on record: melanoma, 1.0×10^−5 M.
Excerpt: as §1
Consider `O=C(CCN1CCCC1)Nc1ccc2c(c1)C(=O)c1cc(NC(=O)CCN3CCCC3)ccc1C2=O` [Compound 18, 2,7-Bis[3-(pyrrolidino)propionamido]anthraquinone], for which the “Cellular growth rate (%)” value stood at 30.74%.

The subject of a further test is OVCAR-3. The test is described as above. Format: cell-based. The settings on record: OVCAR-3, ovarian cancer; 1.0×10^−5 M.
Excerpt: as §1
On to `O=C(CCN1CCCC1)Nc1ccc2c(c1)C(=O)c1cc(NC(=O)CCN3CCCC3)ccc1C2=O` [Compound 18, 2,7-Bis[3-(pyrrolidino)propionamido]anthraquinone], for which the “Cellular growth rate (%)” value came to 36.88%.

The test system of another test is NCl-H226. The test is described as above. Format: cell-based. The following applies: NCl-H226, non-small cell lung cancer; 1.0×10^−5 M.
Excerpt: as §1
As to `O=C(CCN1CCCC1)Nc1ccc2c(c1)C(=O)c1cc(NC(=O)CCN3CCCC3)ccc1C2=O` [Compound 18, 2,7-Bis[3-(pyrrolidino)propionamido]anthraquinone], the “Cellular growth rate (%)” value turned out to be 41.10%.

Another test deals with SW-620. Described as above. The test is classed as cell-based. The following applies: SW-620, colon cancer; 1.0×10^−5 M.
Excerpt: as §1
On to `O=C(CCN1CCCC1)Nc1ccc2c(c1)C(=O)c1cc(NC(=O)CCN3CCCC3)ccc1C2=O` [Compound 18, 2,7-Bis[3-(pyrrolidino)propionamido]anthraquinone], for which the “Cellular growth rate (%)” value was found to be 20.01%.

The test system of a further test is OVCAR-5. The description is as above. The settings on record: OVCAR-5, ovarian cancer; 1.0×10^−5 M. Format: cell-based.
Excerpt: as §1
With `O=C(CCN1CCCC1)Nc1ccc2c(c1)C(=O)c1cc(NC(=O)CCN3CCCC3)ccc1C2=O` [Compound 18, 2,7-Bis[3-(pyrrolidino)propionamido]anthraquinone], the “Cellular growth rate (%)” value is 18.81%.

The test system of the next test is hTERT expression. The test can be described thus: SEAP assay, H1299/PhTERT-driven SEAP system. The settings on record: Homo sapiens, NCI-H1299; H1299; compound concentration 1 μM; read-out: SEAP (Inhibition μM ± SD). The test is classed as cell-based, human. An excerpt:
The condition of the cells for selecting the telomerase inhibitor must be the cancer cells with telomerase activity. H1299 is a non-small cell lung cancer cell line with telomerase activity. The hTERT communication gene linked behind PhTERT which is located at the fifth chromosome of H1299 cell can be expressed; however, this expression is hard to detect. Therefore, the plasmid having the SEAP communication gene linked behind PhTERT was transfected into H1299 cells. Under the identical condition, after PhTERT was activated, the SEAP communication gene linked behind the plasmid was also activated. This gene could be detected by this analytic method while expressing.
If additionally added reagent can inhibit PhTERT, the linked SEAP communication gene will not be expressed, and the hTERT communication gene linked behind PhTERT at the fifth chromosome will not be expressed. […]
The cellular medium after the cellular incubation was transferred into the eppondorf tube, and the activity of endogeneous alkaline phosphatase was inactivated at 65° C. for 10 minutes. After centrification, the mixture was obtained by mixing 50 μl of the supernatant with the equal volume of the SEAP buffer. The mixture and the substrate (120 mM of p-nitrophenylphosphate) were preheated at 37° C. for 10 minutes respectively, and the mixture and the substrate were mixed at a ratio of 1:10 and reacted at 37° C. The absorbance of visible light at 405 nm was determined at the appropriate time intervals, and the enzymatic activity of SEAP was represented by the speed of the increasing absorbance at 405 nm.
The selection of telomerase inhibitors of the anthraquinone compounds provided in the present invention was performed by the H1299/PhTERT-driven SEAP system. SEAP is the communication gene in this drug selection model. The SEAP inhibition was shown as follows. The quantitative cellular medium obtained after the 24-hour drug-treatment and the identical inactivation was reacted with the quantitative SEAP substrate, and the absorbance at 405 nm was detected for 5 time intervals. Subsequently, the linear slope of absorbance to the measuring time was calculated, and the variance of absorbance at 405 nm per minute was represented and compared with the SEAP-producing result of drug-untreated H1299 cells. In addition, the influence of the cell-treated drug solution to the cellular proliferation and the drug toxicity to the cells were considered, and the cellular growth was evaluated by the MTT assay. The drug-treated cells were analyzed by the SEAP assay and the data analysis of MTT assay at the same time. Both results were compared so as to delete the influence of cell number or the activity to SEAP, and the dose-dependent phenomenon could be anticipated in the range of drug concentration designed by the laboratory.
In the preliminary selection, the highest concentration was 1000 μM, and 10-fold serial dilutions were done. Therefore, the final concentrations for treating cells were 1 μM, 10 μM and 100 μM, and the drug concentrations were repeated for 5 times. Since the chemically-synthetic drugs have colors thereon, the SEAP value of drug-treatment without cells was also determined to be the background value which was deducted while treating with the drugs. The candidate drug for inhibiting telomerase on the hTERT gene expression level was evaluated and anticipated.
For the compound `O=C(CCN1CCCC1)Nc1ccc2c(c1)C(=O)c1cc(NC(=O)CCN3CCCC3)ccc1C2=O` [Compound 18, 2,7-Bis[3-(pyrrolidino)propionamido]anthraquinone], the activity at 1 µM came to 73 ± 11%.

Staying with this test, now noted: Homo sapiens, NCI-H1299; H1299; compound concentration 10 μM; read-out: SEAP (Inhibition μM ± SD).
Regarding `O=C(CCN1CCCC1)Nc1ccc2c(c1)C(=O)c1cc(NC(=O)CCN3CCCC3)ccc1C2=O` [Compound 18, 2,7-Bis[3-(pyrrolidino)propionamido]anthraquinone], the activity at 10 µM stood at 29 ± 15%.

The same test, now with this note: Homo sapiens, NCI-H1299; H1299; compound concentration 100 μM; read-out: SEAP (Inhibition μM ± SD).
For `O=C(CCN1CCCC1)Nc1ccc2c(c1)C(=O)c1cc(NC(=O)CCN3CCCC3)ccc1C2=O` [Compound 18, 2,7-Bis[3-(pyrrolidino)propionamido]anthraquinone], the activity at 100 µM came out at 17 ± 13%.
